# According to patent publication US5874432A, “Saccharin derivatives useful as proteolytic enzyme inhibitors and compositions and method of use thereof” (priority 1997, dated 1999):
# Read-outs that look alike come from different tables or passages of the source.
# Target: T1, human leukocyte elastase (Homo sapiens, UniProt P08246)
# T1 sequence (P08246 30-267): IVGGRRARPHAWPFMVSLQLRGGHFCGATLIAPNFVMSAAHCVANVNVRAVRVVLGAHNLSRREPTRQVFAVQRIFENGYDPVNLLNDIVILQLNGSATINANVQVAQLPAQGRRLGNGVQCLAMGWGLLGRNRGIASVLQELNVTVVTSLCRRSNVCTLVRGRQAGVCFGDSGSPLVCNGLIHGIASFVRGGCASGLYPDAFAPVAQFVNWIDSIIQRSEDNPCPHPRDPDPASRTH
# Experiment: elastase inhibition using human leukocyte elastase (kon and Ki*)
# Type: biochemical
# Settings: for Ki: Ki* = koff/kon, read-out: Elastase Ki *; for kon: read-out: Elastase 10^-3 × kon
# [1] = rate of inactivation of enzyme, value is 10^-3 × kon
# Description: Thus, instead of measuring a Ki, a Ki * is calculated which is defined as the ratio of the koff /kon, the rate of reactivation of the enzyme to the rate of inactivation of the enzyme. The values of koff and kon are measured and Ki * is then calculated.
# The rate of inactivation, kon, of enzymatic activity was determined for the compounds tested by measuring the enzyme activity of an aliquot of the respective enzyme as a function of time after addition of the test compound. […] The rate of inactivation is then equal to [formula] where [I] is the concentration of the inhibiting compound.
# The reactivation constant, koff, is similarly determined and the inhibition constant, Ki *, is then calculated as
Compound,Ki [nM],kon [1] [M⁻¹ s⁻¹],kon [M⁻¹ s⁻¹],Elastase 10^-3 × kon [1] [M^-1 sec^-1]
"O=C1c2c(Cl)cccc2S(=O)(=O)N1CSc1nnnn1-c1ccccc1 [Example 4, 4-chloro-2-(1-phenyl-1H-tetrazol-5-ylthiomethyl)saccharin]",12,20000,,
"O=C1c2ccccc2S(=O)(=O)N1CSc1nnnn1C1CCCCC1 [Example 9, 2-(1-cyclohexyl-1H-tetrazol-5-ylthiomethyl)saccharin]",,2500,,
"O=C1c2cc([N+](=O)[O-])ccc2S(=O)(=O)N1CSc1nnnn1-c1ccccc1 [Example 11, 5-nitro-2-(1-phenyl-1H-tetrazol-5-ylthiomethyl)saccharin]",,,4600,
"O=C1c2ccccc2S(=O)(=O)N1COc1ccc([N+](=O)[O-])cc1 [Example 15, 2-(4-nitrophenoxymethyl)saccharin]",69,3200,,
"O=C(CC(c1ccccc1)c1ccccc1)Nc1ccc2c(c1)C(=O)N(CSc1nnnn1-c1ccccc1)S2(=O)=O [Example 16, 5-(3,3-diphenylpropionamido)-2-(1-phenyl-1H-tetrazol-5-ylthiomethyl)saccharin]",2600,,,
"COC(=O)C(Sc1nnnn1-c1ccccc1)N1C(=O)c2ccccc2S1(=O)=O (stereo not drawn) [Example 17, methyl 2-(1-phenyl-1H-tetrazol-5-ylthio)-2-(2-saccharinyl)acetate]",270,2900,,
"O=C1c2ccccc2S(=O)(=O)N1C(Sc1nnnn1-c1ccccc1)c1ccccc1 (stereo not drawn) [Example 19, 2-(1-phenyl-1H-tetrazol-5-ylthiophenylmethyl)saccharin]",8500,,,
"O=C1c2c(Br)cccc2S(=O)(=O)N1CCl [Example 21, 2-chloromethyl-4-bromosaccharin]",0.5,950000,,
"COc1cccc2c1C(=O)N(CCl)S2(=O)=O [Example 22A, 2-chloromethyl-4-methoxysaccharin]",6,12400,,
"CCC(C)c1cccc2c1C(=O)N(CCl)S2(=O)=O (stereo not drawn) [Example 22B, 2-chloromethyl-4-sec.-butylsaccharin]",90,2400,,
"CCC(CC)c1cccc2c1C(=O)N(CCl)S2(=O)=O [Example 22C, 2-chloromethyl-4-(3-pentyl) saccharin]",0.4,105000,,
O=C1c2cccc(Cl)c2S(=O)(=O)N1CCl [Example 22D],1.3,75800,,
"CC(C)c1cccc2c1C(=O)N(CCl)S2(=O)=O [Example 22E, 2-chloromethyl-4-isopropylsaccharin]",91,4700,,
COc1ccc2c(c1OC)C(=O)N(CCl)S2(=O)=O [Example 22F],6.5,20000,,
COC(=O)c1cccc2c1C(=O)N(CCl)S2(=O)=O [Example 22G],50,3000,,
CCOc1cccc2c1C(=O)N(CCl)S2(=O)=O [Example 22H],1.2,25000,,
"O=C1c2ccccc2S(=O)(=O)N1CF [Example 27, 2-fluoromethylsaccharin]",13,7500,,
CCc1cccc2c1C(=O)N(CCl)S2(=O)=O [Example 28],2.5,,,50.7
"Cc1ccc(C)c2c1C(=O)N(CCl)S2(=O)=O [Example 29, 2-chloromethyl-4,7-dimethylsaccharin]",120,1100,,
O=C(O)c1cccc(-n2nnn(CN3C(=O)c4ccccc4S3(=O)=O)c2=S)c1 [Example 30-O],2000,30,,
Cc1nnc(SCN2C(=O)c3ccccc3S2(=O)=O)s1 [Example 30AB],23,2800,,

Compound,Ki [nM],kon [1] [M⁻¹ s⁻¹],kon [M⁻¹ s⁻¹],Elastase 10^-3 × kon [1] [M^-1 sec^-1]
Cn1cnnc1SCN1C(=O)c2ccccc2S1(=O)=O [Example 30AC],,190,,
CSc1nn(CN2C(=O)c3ccccc3S2(=O)=O)c(=S)s1 [Example 30AD],11.6,7000,,
O=C1c2ccccc2S(=O)(=O)N1CSc1nc(-c2ccccc2)ns1 [Example 30AF],12.5,,,4.2
O=C1c2ccccc2S(=O)(=O)N1CSc1nnc(S)s1 [Example 30AH],60,1100,,
CC(C)c1cccc2c1C(=O)N(Cn1nnn(-c3ccccc3)c1=S)S2(=O)=O [Example 30AJ],15.5,1800,,
Cc1nnc(SCN2C(=O)c3c(C(C)C)cccc3S2(=O)=O)s1 [Example 30AM],4.5,12300,,
CC(C)c1cccc2c1C(=O)N(CSc1nnnn1C)S2(=O)=O [Example 30AN],30,19000,,
CCOC(=O)Cn1nnnc1SCN1C(=O)c2ccccc2S1(=O)=O [Example 30AP],51,1300,,
O=C1c2ccccc2S(=O)(=O)N1CSc1nnnn1CCO [Example 30AQ],260,900,,
COC(=O)c1cn(-c2ccccc2)c(SCN2C(=O)c3ccccc3S2(=O)=O)n1 [Example 30AR],153,300,,
CN(C)C(=O)Cn1nnnc1SCN1C(=O)c2ccccc2S1(=O)=O [Example 30AS],40,1700,,
CCOc1cccc2c1C(=O)N(CSc1nnnn1-c1ccccc1)S2(=O)=O [Example 30AT],,45300,,
CC(C)Oc1cccc2c1C(=O)N(CSc1nnnn1-c1ccccc1)S2(=O)=O [Example 30AU],,8900,,
CCc1cccc2c1C(=O)N(CSc1nnnn1CC(=O)N(C)C)S2(=O)=O [Example 30AV],15,7600,,
CC(C)c1cccc2c1C(=O)N(CSc1nnnn1CC(=O)N(C)C)S2(=O)=O [Example 30AW],1,30000,,
CCOc1cccc2c1C(=O)N(CSc1nnnn1CC(=O)N(C)C)S2(=O)=O [Example 30AX],16,7500,,
CC(C)(C)CC(C)(C)c1ccc2c(c1)C(=O)N(CSc1nnnn1-c1ccccc1)S2(=O)=O [Example 30A],10500,,,
O=C1c2c(-c3ccccc3)cccc2S(=O)(=O)N1CSc1nnnn1-c1ccccc1 [Example 30BC],,5800,,
O=C1c2ccccc2S(=O)(=O)N1CSc1nc2ccc([N+](=O)[O-])cc2s1 [Example 30BD],8,11700,,
O=C1c2ccccc2S(=O)(=O)N1CSc1nc2ccc([N+](=O)[O-])cc2o1 [Example 30BE],250,7400,,
O=C1c2ccccc2C(=O)N1CN1C(=O)c2ccccc2S1(=O)=O [Example 30BF],40000,20,,

Compound,Ki [nM],kon [1] [M⁻¹ s⁻¹],kon [M⁻¹ s⁻¹],Elastase 10^-3 × kon [1] [M^-1 sec^-1]
O=C1c2ccccc2S(=O)(=O)N1CSc1nnnn1CCN1CCOCC1 [Example 30BG],50,1700,,
CC(C)c1cccc2c1C(=O)N(CSc1nnnn1CCN1CCOCC1)S2(=O)=O [Example 30BI],0.5,39000,,
Nc1cccc(-n2nnnc2SCN2C(=O)c3ccccc3S2(=O)=O)c1 [Example 30C],17,2500,,
O=C(O)c1ccc(-n2nnnc2SCN2C(=O)c3ccccc3S2(=O)=O)cc1 [Example 30D],85,800,,
COC(=O)c1cc(C(=O)OC)cc(-n2nnnc2SCN2C(=O)c3ccccc3S2(=O)=O)c1 [Example 30E],12.7,7300,,
O=C1C=Cc2ccc(OCN3C(=O)c4ccccc4S3(=O)=O)c3cccc1c23 [Example 30G],7.7,9300,,
O=C1c2ccccc2S(=O)(=O)N1CSc1nncn1-c1ccccc1 [Example 30I],650,450,,
CCc1cccc2c1C(=O)N(CSc1nnnn1CCN1CCOCC1)S2(=O)=O [Example 30J],10,14000,,
CCOc1ccc(OCCOCCOC)c2c1C(=O)N(CSc1nnnn1-c1ccccc1)S2(=O)=O [Example 30L],7.6,6500,,
COCCOCCOc1ccc(OC)c2c1S(=O)(=O)N(CSc1nnnn1-c1ccccc1)C2=O [Example 30M],10,1000,,
O=C1c2ccccc2S(=O)(=O)N1CSc1nnc2ccccn12 [Example 30N],220,250,,
O=C1c2ccccc2S(=O)(=O)N1CSc1nnnn1-c1cccnc1 [Example 30Q],70.4,1380,,
O=C1c2ccccc2S(=O)(=O)N1Cn1nnn(-c2cccnc2)c1=S [Example 30R],36,2300,,
Cn1nnc(=S)n1CN1C(=O)c2ccccc2S1(=O)=O [Example 30W],80,,,1.5
Cn1nnc(SCN2C(=O)c3ccccc3S2(=O)=O)n1 [Example 30X],143,550,,
CC(C)c1cccc2c1C(=O)N(Cn1nnn(-c3cccnc3)c1=S)S2(=O)=O [Example 30Z],0.5,70000,,
O=C1c2ccc([N+](=O)[O-])cc2S(=O)(=O)N1CSc1nnnn1-c1ccccc1 [Example 31C],300,3400,,
"O=C1c2ccccc2S(=O)(=O)N1CS(=O)(=O)c1c(Cl)cccc1Cl [Example 32A, 2-(2,6-dichlorophenylsulfonylmethyl)saccharin]",145,600,,
"O=C1c2ccccc2S(=O)(=O)N1CSc1nnc(SCCN2CCOCC2)s1 [Example 33, 2-(5-[2-(4-morpholinyl)ethylthio]-1,3,4-thiadiazol-2-ylthiomethyl)saccharin]",12,,3600,
"CN(C)CCSc1nnc(SCN2C(=O)c3ccccc3S2(=O)=O)s1 [Example 33B, 2-(5-[2-(N,N-dimethylamino)-ethylthio]-1,3,4-thiadiazol-2-ylthiomethyl)saccharin]",18,4000,,
"O=C1c2ccccc2S(=O)(=O)N1CSc1nnc(SCCN2CCCCC2)s1 [Example 33C, 2-(5-[2-(1-piperidinyl)-ethylthio]-1,3,4-thiadiazol-2-ylthiomethyl)saccharin]",350,200,,
